Test results taken from paper PMC9140068, “Generation of HepG2 Cells with High Expression of Multiple Drug-Metabolizing Enzymes for Drug Discovery Research Using a PITCh System” (Cells, 2022).

Tests used:
CYP2C9 = CYP2C9 (Homo sapiens, UniProt P11712)
Method: (§1) The cells were cultured on 48-well plates, then washed with pH 7.4 HBSS containing 10 mM HEPES and 25 mM glucose. […] After preincubation, HBSS containing 10 μM phenacetin, 10 μM diclofenac, 50 μM S-mephenytoin, 1 μM bufuralol, 10 μM midazolam, 10 μM 7′-hydroxy coumarin, or 1 μM propranolol was added, and the cells were incubated at 37 ℃ for 360 min. […] The samples were collected from the supernatant, then immediately mixed with the same volume of acetonitrile. The mixed solutions were centrifuged for 5 min at 15,000× g. […] HPLC analysis was performed using a LO-20AD SPD + RF (DGU-20A, LC-20AD, RF-20A xs, SIL-20AC, CBM-20A, SPD-20A, CTO-20AC; Shimadzu). The concentrations of each metabolite were calculated according to the respective standard followed by normalization to the protein content per well.
(§2) A value of p < 0.05 was considered statistically significant. Using the SigmaPlot v.
(§3) The quantity of metabolites (4′-hydroxy diclofenac, 1′-hydroxy bufuralol, and 1′-hydroxy midazolam; these compounds are metabolites for CYP2C9, 2D6, and 3A4, respectively) were measured by HPLC. Data represent the means ± SD (n = 3, technical replicates). Statistical analyses were performed using the unpaired two-tailed Student’s t test (** p < 0.01). […]

CYP2D6 = biological target: T1, CYP2D6 (Homo sapiens, UniProt P10635); assay: CYP2D6 inhibition in CYPs–UGT1A1 KI-HepG2 cells (1′-hydroxy bufuralol formation, HPLC); assay type: in vitro ADME
T1 construct: P2A self-cleaving peptide (upstream linker from CYP2C9) (N); T2A self-cleaving peptide (linker to HygR) (C); expressed in transfected cells
T1 sequence (P10635 whole entry): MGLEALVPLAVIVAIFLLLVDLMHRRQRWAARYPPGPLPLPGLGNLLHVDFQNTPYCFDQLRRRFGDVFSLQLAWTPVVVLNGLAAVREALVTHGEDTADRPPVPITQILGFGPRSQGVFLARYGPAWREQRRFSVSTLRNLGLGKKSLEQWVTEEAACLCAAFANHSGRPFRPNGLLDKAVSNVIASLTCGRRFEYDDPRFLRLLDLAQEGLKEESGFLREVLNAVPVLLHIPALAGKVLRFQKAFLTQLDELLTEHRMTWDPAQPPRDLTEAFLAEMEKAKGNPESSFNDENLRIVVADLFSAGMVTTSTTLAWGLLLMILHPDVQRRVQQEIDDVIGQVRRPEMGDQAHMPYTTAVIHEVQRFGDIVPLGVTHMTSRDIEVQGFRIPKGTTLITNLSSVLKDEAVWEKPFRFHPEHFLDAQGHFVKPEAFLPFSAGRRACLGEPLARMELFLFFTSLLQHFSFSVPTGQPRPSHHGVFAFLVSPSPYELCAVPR
Method: as §1, §2, §3

WT-HepG2 cells = assay: Propranolol metabolite formation in WT-HepG2 cells (HPLC); assay type: in vitro ADME, human; details: 1 μM propranolol, 360 min
Excerpt: Figure 5 Major metabolites of propranolol formed by the CYPs–UGT1A1 KI-HepG2 cells. […] Data are means ± SD of three technical replicates. N.D., not detected.

[1] = test system: CYPs–UGT1A1 KI-HepG2 cells
Method: The HepG2 cells were seeded in 96-well plates at 1.0 × 10^4 cells/well. […] After 24 h, to examine the cell viability, we performed a WST-8 (2-(2-methoxy-4-nitrophenyl)-3-(4-nitrophenyl)-5-(2,4-disulfophenyl)-2H-tetrazolium, monosodium salt) assay by using Cell Count Reagent SF according to the manufacturer’s instructions. The cell viability was calculated as the percentage of that in the cells treated with a vehicle only.
After 24 h, cell viability was examined by WST-8 assay. The cell viability was calculated as a percentage of the number of cells after treatment with a solvent only. The results shown are means ± SD of three technical replicates.

[2] = test system: CYPs–UGT1A1 KI-HepG2 cells; assay: Propranolol metabolite formation in CYPs–UGT1A1 KI-HepG2 cells (HPLC); assay type: in vitro ADME, human; details: 1 μM propranolol, 360 min

CYP2C9, sequence (P11712 whole entry): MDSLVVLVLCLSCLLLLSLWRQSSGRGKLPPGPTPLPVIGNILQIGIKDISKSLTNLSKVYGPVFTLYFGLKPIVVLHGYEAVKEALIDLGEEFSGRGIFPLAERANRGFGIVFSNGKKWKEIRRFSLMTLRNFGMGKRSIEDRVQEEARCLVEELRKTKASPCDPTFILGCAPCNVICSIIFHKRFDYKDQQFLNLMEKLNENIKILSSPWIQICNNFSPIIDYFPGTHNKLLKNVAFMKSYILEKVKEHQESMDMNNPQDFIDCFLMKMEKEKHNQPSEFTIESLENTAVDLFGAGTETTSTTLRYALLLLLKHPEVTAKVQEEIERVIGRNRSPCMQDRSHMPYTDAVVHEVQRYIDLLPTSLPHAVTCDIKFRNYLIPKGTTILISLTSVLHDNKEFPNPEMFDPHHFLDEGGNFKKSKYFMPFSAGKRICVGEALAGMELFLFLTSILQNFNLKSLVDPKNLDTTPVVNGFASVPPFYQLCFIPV

Row | Metabolite of propranolol formed (detection by HPLC) (WT-HepG2 cells) | Structure (SMILES) | Cell viability of CYPs–UGT1A1 KI-HepG2 cells compared with WT-HepG2 cells [1] | also measured
1 | – | Nc1ccc(S(=O)(=O)Nc2ccnn2-c2ccccc2)cc1 [sulfaphenazole] | – | CYP2C9 activity in the presence of the inhibitor (CYP2C9): significantly decreased
2 | – | CN(C/C=C/C#CC(C)(C)C)Cc1cccc2ccccc12 [terbinafine] | – | CYP2D6 activity in the presence of the inhibitor (CYP2D6; 10 μM inhibitor, 1 μM bufuralol, p < 0.01): significantly decreased; IC50 (CYP2D6; substrate 1 μM bufuralol, inhibitor 0.03-10 μM, 30 min preincubation, 360 min incubation): 0.0635 µM
3 | undetectable | CC(C)NCC(O)COc1ccc(O)c2ccccc12 (centres unmarked) [4′-hydroxy propranolol] | – | –
4 | – | CN(C)CCCN1c2ccccc2CCc2ccccc21 [imipramine] | lower | –
5 | – | CC(=O)Nc1ccc(O)cc1 [acetaminophen] | lower | –
6 | undetectable | CC(C)NCC(O)COc1cccc2c(O)cccc12 (centres unmarked) [5′-hydroxy propranolol] | – | –
7 | undetectable | NCC(O)COc1cccc2ccccc12 (centres unmarked) [desisopropylpropranolol] | – | Metabolite of propranolol formed (detection by HPLC) [2]: present at detectable levels
8 | – | Cc1c(C)c2c(c(C)c1O)CCC(C)(COc1ccc(CC3SC(=O)NC3=O)cc1)O2 (centres unmarked) [troglitazone] | lower | –
9 | – | CCc1oc2ccccc2c1C(=O)c1cc(Br)c(O)c(Br)c1 [benzbromarone] | lower | –
